# Experimental data from patent US20220267298A1 (priority 2019, published 2022).
# Values joined by “and” are separate entries in the source; they are usually repeats but may differ in a detail not shown here. Identical values can stand only once.
# Target: T1, GRK2 (Homo sapiens, UniProt P25098)
# T1 sequence (P25098 1-689): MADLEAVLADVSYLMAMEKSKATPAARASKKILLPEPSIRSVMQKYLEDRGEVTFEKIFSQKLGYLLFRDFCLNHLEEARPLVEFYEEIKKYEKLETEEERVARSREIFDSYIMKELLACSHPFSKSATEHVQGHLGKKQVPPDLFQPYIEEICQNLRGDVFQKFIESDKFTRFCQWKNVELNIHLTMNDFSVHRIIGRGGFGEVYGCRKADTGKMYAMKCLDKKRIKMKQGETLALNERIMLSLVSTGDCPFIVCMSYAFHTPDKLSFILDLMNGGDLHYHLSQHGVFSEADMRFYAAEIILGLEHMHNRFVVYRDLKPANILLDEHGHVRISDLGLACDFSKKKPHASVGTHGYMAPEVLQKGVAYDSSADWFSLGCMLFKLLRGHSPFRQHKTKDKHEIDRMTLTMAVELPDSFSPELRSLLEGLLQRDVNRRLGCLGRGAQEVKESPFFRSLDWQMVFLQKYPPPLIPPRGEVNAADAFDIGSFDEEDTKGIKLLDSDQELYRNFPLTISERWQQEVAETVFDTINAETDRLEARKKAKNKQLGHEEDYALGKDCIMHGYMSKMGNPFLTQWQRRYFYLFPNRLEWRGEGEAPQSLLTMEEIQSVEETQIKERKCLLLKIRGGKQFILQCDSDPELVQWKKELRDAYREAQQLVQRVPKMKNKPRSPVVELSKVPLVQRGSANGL
# Assay: biochemical
# Settings: GRK2 IC50 (μM), 10 nM GRK2; 10 uM ATP
row,IC50,SMILES
1,~0.01 µM and 0.011 µM,"COc1cccc(Cn2cnc3ccc(-c4cn[nH]c4)cc3c2=O)c1 [Compound 2, 3-(3-Methoxybenzyl)-6-(1H-pyrazol-4-yl)quinazolin-4(3H)-one]"

# Target: T1, GRK2
# Assay: biochemical
# Settings: not given
# Method: hGRK2 LANCE Ultra In Vitro Assay
# G-protein coupled receptor kinases (GR Kinases) desensitize activated G-protein coupled receptors (GPCRs), by phosphorylation of cytoplasmic loops or carboxyl-terminal tails of GPCRs. GRK2 is one of the 6 different GR kinases and is implicated in heart failure and diabetes.
# This assay is sensitive and requires as low as 10 nM enzyme, in a total volume of 10 μL. In addition, the ATP concentration can be varied over a broad range, without interfering with the assay or changing the assay condition. […] Testing inhibitors routinely at both high and low ATP concentrations also enables identification of potential non-ATP competitive inhibitors.
# Paroxetine was used as the reference compound in this assay.
# Test compounds were dissolved in DMSO at 1 mM and were 3-fold serial diluted. The compound DMSO solutions were then added (100 nL) into a plate well using an acoustic dispenser. To each well was then added 20 nM GRK2 (5 μL) in assay buffer (20 mM HEPES, pH 7.5, 10 mM MgCl2, 0.001% Tween-20®). The plate was sealed and centrifuged at 1000 rpm for 1 min.
# The plate and wells containing a mixture of GRK2 and test compound were incubated at ambient temperature for 30 min (prior to initializing the enzymatic reaction).
# Enzyme reactions were initiated by the addition of 4.9 μL Substrates/Eu-Ab mix to each well.
# The plates were sealed and centrifuged at 1000 rpm for 1 min.
# The enzyme reactions were quenched by addition of 10 μL of 12 mM EDTA in 1× LANCE detection solution to each well. The plates were then incubated at ambient temperature for 30 min.
# The raw HTRF data were converted to % active as follows:
# % active=(sample−NC)/(PC−NC)*100
row,SMILES,IC50
1,"COc1cccc(Cn2cnc3ccc(-c4cn[nH]c4)c(F)c3c2=O)c1 [Compound 3, 5-Fluoro-3-(3-methoxybenzyl)-6-(1H-pyrazol-4-yl)quinazolin-4(3H)-one]",7 nM
2,"COc1cccc(Cn2c(C)nc3ccc(-c4ccnc(N)n4)cc3c2=O)c1 [Compound 10, 6-(2-Aminopyrimidin-4-yl)-3-[(3-methoxyphenyl)methyl]-2-methyl-quinazolin-4-one]",371 nM
3,"COc1cccc(Cn2cnc3ccc(-c4cn[nH]c4)c(O)c3c2=O)c1 [Compound 4, 5-Hydroxy-3-(3-methoxybenzyl)-6-(1H-pyrazol-4-yl)quinazolin-4(3H)-one]",9 nM
4,"COC(=O)C(c1cccc(OC)c1)n1cnc2ccc(-c3cn[nH]c3)cc2c1=O (stereo not shown) [Compound 11, Methyl 2-(3-methoxyphenyl)-2-[4-oxo-6-(1H-pyrazol-4-yl)quinazolin-3-yl]acetate]",1410 nM
5,"COc1cccc(C(C(=O)O)n2cnc3ccc(-c4cn[nH]c4)cc3c2=O)c1 (stereo not shown) [Compound 12, (3-Methoxyphenyl)-2-[4-oxo-6-(1H-pyrazol-4-yl)quinazolin-3-yl]acetic acid]",2550 nM
6,"COc1cccc(Cn2cnc3ccc(-c4cn[nH]c4)c(Cl)c3c2=O)c1 [Compound 7, 5-Chloro-3-[(3-methoxyphenyl)methyl]-6-(1H-pyrazol-4-yl)quinazolin-4-one]",16 nM
7,"COc1cccc(Cn2cnc3ccc(-c4cn[nH]c4)c(OC)c3c2=O)c1 [Compound 5, 5-Methoxy-3-[(3-methoxyphenyl)methyl]-6-(1H-pyrazol-4-yl)quinazolin-4-one]",9 nM

# Further lines, results first:
row,IC50,SMILES
1,93 nM,"COc1cccc(Cn2cnc3c(F)cc(-c4cn[nH]c4)cc3c2=O)c1 [Compound 9, 8-Fluoro-3-[(3-methoxyphenyl)methyl]-6-(1H-pyrazol-4-yl)quinazolin-4-one]"
2,29 nM,"CCOc1cccc(Cn2cnc3ccc(-c4cn[nH]c4)c(F)c3c2=O)c1 [Compound 8, 3-(3-Ethoxybenzyl)-5-fluoro-6-(1H-pyrazol-4-yl)quinazolin-4(3H)-one]"
3,16 nM,"COc1cccc(Cn2cnc3cc(OC)c(-c4cn[nH]c4)cc3c2=O)c1 [Compound 6, 7-Methoxy-3-[(3-methoxyphenyl)methyl]-6-(1H-pyrazol-4-yl)quinazolin-4-one]"
4,5 nM,"COc1cccc(Cn2cnc3ccc(-c4cn[nH]c4)c(C#N)c3c2=O)c1 [Compound 1, 3-(3-Methoxybenzyl)-4-oxo-6-(1H-pyrazol-4-yl)-3,4-dihydroquinazoline-5-carbonitrile]"

# Same assay, conditions: 10 nM GRK2; ATP 30 or 600 μM, not stated which; read-out: GRK2 Lancer IC50
row,IC50,SMILES
1,6 nM,"COc1cccc(Cn2cnc3ccc(-c4cn[nH]c4)cc3c2=O)c1 [Compound 2, 3-(3-Methoxybenzyl)-6-(1H-pyrazol-4-yl)quinazolin-4(3H)-one]"
